Laboratory results reported in US7560468B2, “Substituted 1,4,8-triazaspiro[4,5]decan-2-one compounds” (Gruenenthal GmbH, priority 2004, dated 2009).

What was measured:
5-HT transporter = target: T1, 5-HT transporter (Rattus norvegicus, UniProt P31652); experiment: Inhibition of 5-HT uptake in synaptosomes; format: biochemical; settings: for inhibition at 1 µM: read-out: Uptake_5-HT, rat, 1 μM, % inhibition
T1 construct: from tissue; host or cells: rat brain synaptosomes (marrow/medulla and pons), P2 fraction

[1] = test system: batrachotoxin (BTX) binding site of the sodium channel; experiment: Affinity to the batrachotoxin (BTX) binding site of the sodium channel; settings: rat cerebrocortex synaptosomes, [3H]-batrachotoxinin A20 α-benzoate 10 nM; test concentration not given

T1 sequence (P31652 whole entry): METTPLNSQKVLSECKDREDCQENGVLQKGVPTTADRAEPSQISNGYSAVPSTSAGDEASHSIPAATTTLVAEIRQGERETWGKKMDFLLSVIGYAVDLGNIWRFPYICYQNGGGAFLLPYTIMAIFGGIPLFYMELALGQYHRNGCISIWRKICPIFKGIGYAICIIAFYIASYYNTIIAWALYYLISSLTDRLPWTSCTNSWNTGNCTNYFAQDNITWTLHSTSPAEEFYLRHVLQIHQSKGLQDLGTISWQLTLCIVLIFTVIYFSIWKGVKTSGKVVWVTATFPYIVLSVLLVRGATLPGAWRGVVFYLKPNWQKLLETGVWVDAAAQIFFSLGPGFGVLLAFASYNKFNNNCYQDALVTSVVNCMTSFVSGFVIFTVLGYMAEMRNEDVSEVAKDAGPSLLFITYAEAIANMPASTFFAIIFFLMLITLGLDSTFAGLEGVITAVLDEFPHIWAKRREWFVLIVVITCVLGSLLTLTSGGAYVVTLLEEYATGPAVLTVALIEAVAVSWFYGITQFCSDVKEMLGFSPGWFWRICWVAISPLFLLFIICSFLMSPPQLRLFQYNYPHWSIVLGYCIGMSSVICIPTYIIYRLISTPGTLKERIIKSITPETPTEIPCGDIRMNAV

Structure (SMILES) | inhibition at 1 µM (5-HT transporter) | Uptake_5-HT, rat, 1 μM, % inhibition (5-HT transporter) | BTX Inhibition [1]
CCCCN1C(=O)C(Cc2ccccc2)NC12CCN(S(=O)(=O)c1ccc(CC)cc1)CC2 (stereo not drawn) [Example 33, 3-Benzyl-1-butyl-8-(4-ethylbenzolsulfonyl)-1,4,8-triazaspiro[4,5]decan-2-one] |  | 67% | 54
CSCCC1NC2(CCN(C(=O)Nc3ccc(OC(F)(F)F)cc3)CC2)N(Cc2ccc(F)cc2)C1=O (stereo not drawn) [Example 237, 1-(4-Fluorobenzyl)-3-(2-methylsulfanylethyl)-2-oxo-1,4,8-triazaspiro[4,5]decan-8-carboxylic acid (4-trifluoromethoxy-benzol)amide] |  | 39% | 87
CC(=O)c1cccc(NC(=S)N2CCC3(CC2)NC(Cc2ccccc2)C(=O)N3Cc2ccccc2F)c1 (stereo not drawn) [Example 201, 3-Benzyl-1-(2-fluorobenzyl)-2-oxo-1,4,8-triazaspiro[4,5]decan-8-thiocarboxylic acid (3-acetylbenzol)amide] |  | 54% | 63
CCOC(=O)CN1C(=O)C(Cc2ccccc2)NC12CCN(C(=S)Nc1ccccc1C(=O)OC)CC2 (stereo not drawn) [Example 145, Methyl 2-[(3-benzyl-1-ethoxycarbonylmethyl-2-oxo-1,4,8-triazaspiro[4,5]decan-8-carbothioyl)amino]-benzoate] | 67% |  | 69
COCCNC(=S)N1CCC2(CC1)NC(CCSC)C(=O)N2Cc1ccc2ccccc2c1 (stereo not drawn) [Example 121, 3-(2-Methylsulfanylethyl)-1-naphthalin-2-ylmethyl-2-oxo-1,4,8-triazaspiro[4,5]decan-8-thiocarboxylic acid (2-methoxy-ethyl)amide] | 39% |  | 47
CC(C)C1NC2(CCN(C(=S)Nc3cc(Cl)ccc3Cl)CC2)N(Cc2ccccc2)C1=O (stereo not drawn) [Example 136, 1-Benzyl-3-isopropyl-2-oxo-1,4,8-triazaspiro[4,5]decan-8-thiocarboxylic acid (2,5-dichlorobenzol)amide] |  | 44% | 66
CCCCN1C(=O)C(C(C)C)NC12CCN(C(=S)Nc1cccc(C)c1)CC2 (stereo not drawn) [Example 124, 1-Butyl-3-isopropyl-2-oxo-1,4,8-triazaspiro[4,5]decan-8-thiocarboxylic acid m-tolylamide] | 47% |  | 41
CSCCC1NC2(CCN(S(=O)(=O)N(C)C)CC2)N(Cc2ccc3ccccc3c2)C1=O (stereo not drawn) [Example 75, 3-(2-Methylsulfanylethyl)-1-naphthalin-2-ylmethyl-2-oxo-1,4,8-triazaspiro[4,5]decan-8-sulfonic acid dimethylamide] | 74% |  | 62
COc1ccc(S(=O)(=O)N2CCC3(CC2)NC(Cc2ccccc2)C(=O)N3Cc2ccccc2)cc1OC (stereo not drawn) [Example 29, 1,3-Dibenzyl-8-(3,4-dimethoxy-benzolsulfonyl)-1,4,8-triazaspiro[4,5]decan-2-one] |  | 75% | 47
CCOC(=O)CN1C(=O)C(Cc2ccccc2)NC12CCN(S(=O)(=O)c1ccc(F)c(Cl)c1)CC2 (stereo not drawn) [Example 69, Ethyl[3-benzyl-8-(3-chloro-4-fluorobenzolsulfonyl)-2-oxo-1,4,8-triazaspiro[4,5]dec-1-yl]-acetate] |  | 62% | 73
CCOC(=O)CN1C(=O)C(Cc2ccccc2)NC12CCN(S(=O)(=O)c1ccccc1)CC2 (stereo not drawn) [Example 66, Ethyl(8-benzolsulfonyl-3-benzyl-2-oxo-1,4,8-triazaspiro[4,5]dec-1-yl)acetate] |  | 64% | 39
CN1C(=O)C(Cc2ccccc2)NC12CCN(S(=O)(=O)c1cccc(Cl)c1)CC2 (stereo not drawn) [Example 40, 3-Benzyl-8-(3-chlorobenzolsulfonyl)-1-methyl-1,4,8-triazaspiro[4,5]decan-2-one] |  | 57% | 
C=CCN1C(=O)C(CCSC)NC12CCN(S(=O)(=O)Cc1ccccc1)CC2 (stereo not drawn) [Example 58, 1-Allyl-3-(2-methylsulfanylethyl)-8-benzolmethansulfonyl-1,4,8-triazaspiro[4,5]decan-2-one] |  | 56% | 
C=CCN1C(=O)C(C(C)C)NC12CCN(C(=S)Nc1ccc(F)cc1)CC2 (stereo not drawn) [Example 125, 1-Allyl-3-isopropyl-2-oxo-1,4,8-triazaspiro[4,5]decan-8-thiocarboxylic acid (4-fluorobenzol)amide] |  | 34% | 
CCCCN1C(=O)C(CCSC)NC12CCN(S(=O)(=O)c1ccc(OC)c(OC)c1)CC2 (stereo not drawn) [Example 30, 1-Butyl-8-(3,4-dimethoxy-benzolsulfonyl)-3-(2-methylsulfanylethyl)-1,4,8-triazaspiro[4,5]decan-2-one] |  | 53% | 
CSCCC1NC2(CCN(C(=O)Nc3cccc(F)c3)CC2)N(Cc2ccccc2C#N)C1=O (stereo not drawn) [Example 226, 1-(2-Cyanobenzyl)-3-(2-methylsulfanylethyl)-2-oxo-1,4,8-triazaspiro[4,5]decan-8-carboxylic acid (3-fluorobenzol)amide] |  | 55% | 
CC(C)C1NC2(CCN(S(=O)(=O)c3ccc([N+](=O)[O-])cc3)CC2)N(Cc2cccc(C#N)c2)C1=O (stereo not drawn) [Example 52, 3-[3-Isopropyl-8-(4-nitrobenzolsulfonyl)-2-oxo-1,4,8-triazaspiro[4,5]dec-1-ylmethyl]-benzonitrile] |  | 53% | 
CC(C)C1NC2(CCN(S(=O)(=O)c3ccc([N+](=O)[O-])cc3)CC2)NC1=O (stereo not drawn) [Example 1, 3-Isopropyl-8-(4-nitrobenzolsulfonyl)-1,4,8-triazaspiro[4,5]decan-2-one] |  | 55% | 
CC(C)NC(=S)N1CCC2(CC1)NC(=O)C(Cc1ccccc1)N2 (stereo not drawn) [Example 103, 2-Benzyl-3-oxo-1,4,8-triazaspiro[4,5]decan-8-thiocarboxylic acid isopropylamide] | 41% |  | 

Now from value to compound, other results behind:

inhibition at 1 µM (5-HT transporter) | Structure (SMILES) | Uptake_5-HT, rat, 1 μM, % inhibition (5-HT transporter) | BTX Inhibition [1]
58% | CCCCN1C(=O)C(CCSC)NC12CCN(S(=O)(=O)c1ccc(Cl)s1)CC2 (stereo not drawn) [Example 12, 1-Butyl-8-(5-chlorothiophen-2-sulfonyl)-3-(2-methylsulfanylethyl)-1,4,8-triazaspiro[4,5]decan-2-one] |  | 
44% | CCCCN1C(=O)C(C(C)C)NC12CCN(S(=O)(=O)c1ccccc1C(=O)OC)CC2 (stereo not drawn) [Example 15, Methyl 2-(1-butyl-3-isopropyl-2-oxo-1,4,8-triazaspiro[4,5]decan-8-sulfonyl)benzoate] |  | 
64% | CCS(=O)(=O)N1CCC2(CC1)NC(CCSC)C(=O)N2Cc1ccccc1 (stereo not drawn) [Example 32, 1-Benzyl-8-ethanesulfonyl-3-(2-methylsulfanylethyl)-1,4,8-triazaspiro[4,5]decan-2-one] |  | 
70% | CCCCS(=O)(=O)N1CCC2(CC1)NC(Cc1ccccc1)C(=O)N2CC(=O)OCC (stereo not drawn) [Example 62, Ethyl[3-benzyl-8-(butan-1-sulfonyl)-2-oxo-1,4,8-triazaspiro[4,5]dec-1-yl]-acetate] |  | 
40% | COC(=O)c1ccccc1S(=O)(=O)N1CCC2(CC1)NC(CCSC)C(=O)N2Cc1ccccc1C#N (stereo not drawn) [Example 38, Methyl 2-[1-(2-cyanobenzyl)-3-(2-methylsulfanylethyl)-2-oxo-1,4,8-triazaspiro[4,5]decan-8-sulfonyl]-benzoate] |  | 
57% | CN(C)S(=O)(=O)N1CCC2(CC1)NCC(=O)N2Cc1ccccc1F [Example 55, 1-(2-Fluorobenzyl)-2-oxo-1,4,8-triazaspiro[4,5]decan-8-sulfonic acid dimethylamide] |  | 
